Assay results from PMC2910072 (Nucleic Acids Research, 2010).
pIC50: −log10 of the molar value.

Target: E. coli RNA polymerase β subunit (wild-type) (Escherichia coli, UniProt P0A8V2)
Experiment: coupled cell-free synthesis of RNAP holoenzyme with firefly luciferase reporter
Format: biochemical

Sequence of E. coli RNA polymerase β subunit (wild-type) (P0A8V2 whole entry): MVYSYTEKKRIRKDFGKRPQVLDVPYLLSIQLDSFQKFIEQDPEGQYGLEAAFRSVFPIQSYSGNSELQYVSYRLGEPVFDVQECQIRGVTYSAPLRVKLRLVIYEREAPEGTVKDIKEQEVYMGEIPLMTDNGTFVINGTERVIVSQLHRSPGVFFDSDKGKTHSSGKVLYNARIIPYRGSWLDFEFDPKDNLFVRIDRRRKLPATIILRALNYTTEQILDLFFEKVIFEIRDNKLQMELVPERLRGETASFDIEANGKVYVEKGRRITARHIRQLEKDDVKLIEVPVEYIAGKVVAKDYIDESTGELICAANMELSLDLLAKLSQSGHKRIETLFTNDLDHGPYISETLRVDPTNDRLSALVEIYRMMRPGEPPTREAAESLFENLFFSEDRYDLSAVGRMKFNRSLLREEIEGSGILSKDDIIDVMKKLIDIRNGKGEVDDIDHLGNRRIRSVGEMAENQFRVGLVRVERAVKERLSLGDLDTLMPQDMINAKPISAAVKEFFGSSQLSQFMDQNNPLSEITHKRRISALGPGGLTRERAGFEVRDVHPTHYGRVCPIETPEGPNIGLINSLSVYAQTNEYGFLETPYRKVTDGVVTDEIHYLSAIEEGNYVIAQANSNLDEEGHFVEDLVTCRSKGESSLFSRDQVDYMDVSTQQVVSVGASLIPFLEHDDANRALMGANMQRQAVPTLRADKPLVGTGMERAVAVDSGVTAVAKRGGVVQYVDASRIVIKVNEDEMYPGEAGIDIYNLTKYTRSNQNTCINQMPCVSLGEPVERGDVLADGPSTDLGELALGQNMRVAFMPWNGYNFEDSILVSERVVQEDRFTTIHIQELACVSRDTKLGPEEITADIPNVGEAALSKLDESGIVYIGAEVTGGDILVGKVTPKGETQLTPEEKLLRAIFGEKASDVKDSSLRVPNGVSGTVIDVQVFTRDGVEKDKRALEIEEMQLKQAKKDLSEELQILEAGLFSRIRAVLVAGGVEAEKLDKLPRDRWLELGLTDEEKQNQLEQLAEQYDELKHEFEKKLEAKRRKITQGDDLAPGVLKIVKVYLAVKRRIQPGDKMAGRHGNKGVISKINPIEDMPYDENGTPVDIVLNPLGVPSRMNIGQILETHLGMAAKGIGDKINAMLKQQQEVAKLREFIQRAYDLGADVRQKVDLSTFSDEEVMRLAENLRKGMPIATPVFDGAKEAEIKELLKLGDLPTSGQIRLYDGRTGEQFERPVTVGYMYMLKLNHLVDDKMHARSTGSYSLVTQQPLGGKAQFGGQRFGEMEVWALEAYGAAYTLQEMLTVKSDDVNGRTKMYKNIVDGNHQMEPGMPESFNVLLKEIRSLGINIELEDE
Sequence of E. coli RNA polymerase β subunit (wild-type) (P0A7Z4 whole entry partner): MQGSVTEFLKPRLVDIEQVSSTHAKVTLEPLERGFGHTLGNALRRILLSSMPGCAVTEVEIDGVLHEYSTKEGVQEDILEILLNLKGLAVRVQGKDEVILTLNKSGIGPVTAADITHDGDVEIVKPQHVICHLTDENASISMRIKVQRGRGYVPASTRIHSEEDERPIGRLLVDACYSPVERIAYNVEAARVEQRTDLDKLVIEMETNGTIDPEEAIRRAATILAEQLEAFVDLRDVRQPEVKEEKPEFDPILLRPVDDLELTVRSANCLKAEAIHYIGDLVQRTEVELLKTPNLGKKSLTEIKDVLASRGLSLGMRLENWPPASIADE
Sequence of E. coli RNA polymerase β subunit (wild-type) (P0A8T7 whole entry partner): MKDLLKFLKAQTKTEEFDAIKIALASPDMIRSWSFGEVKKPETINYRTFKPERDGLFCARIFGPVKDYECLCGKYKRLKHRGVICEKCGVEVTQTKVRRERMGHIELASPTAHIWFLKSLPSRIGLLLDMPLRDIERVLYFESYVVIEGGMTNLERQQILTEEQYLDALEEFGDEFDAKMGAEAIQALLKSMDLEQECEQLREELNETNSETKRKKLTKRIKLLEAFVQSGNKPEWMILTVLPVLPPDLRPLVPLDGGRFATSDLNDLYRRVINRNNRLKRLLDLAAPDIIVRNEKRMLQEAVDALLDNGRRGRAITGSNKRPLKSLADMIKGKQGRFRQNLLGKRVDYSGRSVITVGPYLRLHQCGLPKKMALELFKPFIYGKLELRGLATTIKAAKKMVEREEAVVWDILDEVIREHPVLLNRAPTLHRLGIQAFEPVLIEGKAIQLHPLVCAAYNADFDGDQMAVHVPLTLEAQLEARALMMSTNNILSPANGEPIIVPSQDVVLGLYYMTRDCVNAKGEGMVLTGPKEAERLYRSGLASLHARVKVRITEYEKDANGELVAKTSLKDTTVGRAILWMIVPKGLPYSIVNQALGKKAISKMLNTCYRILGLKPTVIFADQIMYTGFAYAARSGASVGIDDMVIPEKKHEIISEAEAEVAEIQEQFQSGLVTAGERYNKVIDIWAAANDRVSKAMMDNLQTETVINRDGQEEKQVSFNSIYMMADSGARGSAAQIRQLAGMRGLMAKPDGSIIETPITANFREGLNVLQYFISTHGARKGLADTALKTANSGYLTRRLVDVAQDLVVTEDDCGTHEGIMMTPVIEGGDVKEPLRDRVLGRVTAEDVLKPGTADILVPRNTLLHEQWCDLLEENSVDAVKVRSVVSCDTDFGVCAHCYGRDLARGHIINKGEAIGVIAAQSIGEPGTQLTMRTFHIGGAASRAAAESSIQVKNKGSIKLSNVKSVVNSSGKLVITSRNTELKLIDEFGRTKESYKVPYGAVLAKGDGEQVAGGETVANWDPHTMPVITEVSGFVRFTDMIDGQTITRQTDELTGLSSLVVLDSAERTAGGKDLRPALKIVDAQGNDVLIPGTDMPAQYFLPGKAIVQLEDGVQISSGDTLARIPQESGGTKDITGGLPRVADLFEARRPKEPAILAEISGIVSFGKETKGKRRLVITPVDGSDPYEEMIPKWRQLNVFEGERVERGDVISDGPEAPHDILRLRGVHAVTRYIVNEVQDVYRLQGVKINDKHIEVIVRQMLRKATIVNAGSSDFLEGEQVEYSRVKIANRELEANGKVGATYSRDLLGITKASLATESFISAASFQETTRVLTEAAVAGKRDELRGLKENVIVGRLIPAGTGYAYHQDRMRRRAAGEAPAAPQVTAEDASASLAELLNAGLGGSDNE
Sequence of E. coli RNA polymerase β subunit (wild-type) (P0A800 2-91 partner): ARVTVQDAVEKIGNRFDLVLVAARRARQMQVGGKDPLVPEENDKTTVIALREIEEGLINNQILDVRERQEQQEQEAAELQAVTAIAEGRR
Sequence of E. coli RNA polymerase β subunit (wild-type) (P0AGB3 whole entry partner): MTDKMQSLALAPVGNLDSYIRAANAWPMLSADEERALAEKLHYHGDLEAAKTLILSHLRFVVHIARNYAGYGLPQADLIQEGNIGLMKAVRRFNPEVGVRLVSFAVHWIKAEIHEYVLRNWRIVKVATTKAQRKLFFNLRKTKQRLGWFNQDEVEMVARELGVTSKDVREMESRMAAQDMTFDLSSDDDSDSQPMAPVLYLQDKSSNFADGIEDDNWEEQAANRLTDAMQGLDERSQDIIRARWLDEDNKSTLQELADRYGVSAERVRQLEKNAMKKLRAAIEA

`CO[C@H]1/C=C/O[C@@]2(C)Oc3c(C)c(O)c4c(O)c(c(/C=N/N5CCN(C)CC5)c(O)c4c3C2=O)NC(=O)/C(C)=C\C=C\[C@H](C)[C@H](O)[C@@H](C)[C@@H](O)[C@@H](C)[C@H](OC(C)=O)[C@@H]1C` [rifampicin] gave a pIC50 of ~6.70.
